Here are results for two compounds from patent US20260174788A1 (priority 2023, published 2026).

Some results are limits rather than exact numbers.

Series [1] can be described thus: Pharmacokinetics of gemcitabine and dFdU in urine and plasma after TAR-200. To be noted: for Mean cumulative excreted amount in urine as percentage of the administered dose: 0-168 hours after TAR-200; for Tmax: human, urine, other: intravesical, 225 mg gemcitabine.
Series [2] concerns HR NMIBC (CIS with or without papillary disease) unresponsive to prior intravesical BCG therapy. Set-up: species or system human. To be noted: in vivo.

Regarding `O=c1ccn([C@@H]2O[C@H](CO)[C@@H](O)C2(F)F)c(=O)[nH]1` [dFdU, 2′,2′ difluorodeoxyuridine], in series [1], the “Mean cumulative excreted amount in urine as percentage of the administered dose” value is given as 11.1-23.3% and the Tmax fell in the range of 72 to 144 h.
Regarding `Nc1ccn([C@@H]2O[C@H](CO)[C@@H](O)C2(F)F)c(=O)n1` [gemcitabine], in series [2], the “12-month CR rate, all TAR-200 treated patients” value came out at 64%; the “Responders who achieved CR at the 12 weeks disease assessment” value is 47 out of 48; the “effectiveness versus existing standard of care” value was “nearly two times as effective”. In addition, in series [1], the “Mean cumulative excreted amount in urine as percentage of the administered dose” value was 36.2-53.8% and the Tmax is 48 to 96 h. Besides, in series [1] (after TAR-200 (225 mg gemcitabine)), the “Mean gemcitabine concentration in urine versus tumoricidal concentration” value is greater than 3 µg/mL.
